Columns and labels:
[1] = test system: BPV-1; assay: BPV-1 focus assay in C127 mouse cells; type: cell-based, bovine papillomavirus; details: bovine papillomavirus
Method: Cell-free stocks of BPV-1 were prepared by extraction (10% w/v) of epidermal bovine warts in phosphate buffered saline (PBS). In order to detect the transforming ability of BPV-1, C127 mouse cells were seeded (3×10^5 cells per flask) into T-25^2 flasks. After 24 hr of growth, subconfluent cells were infected with BPV-1. For the positive controls, stock virus (20 μl) was diluted (1:1) with PBS, incubated at 37° C. for 10 min, diluted […] and then added (100 μl ) into the 5 ml of cell culture medium present on the cells. Cells were refed at 24 hours and subsequently 2 times weekly. The presence of morphologically transformed foci was counted after 2 weeks and then again at 3 weeks.
Virus inactivations were carried out in vitro by addition of concentrated SDS solutions to the virus stocks (20 μl of virus plus 20 μl of detergent) and subsequent incubation at 37° C. for 10 or 30 min as indicated. Following inactivation, virus was diluted 1000 fold to lower the detergent concentration and the preparations were immediately used for infection as above.
Although SDS could effectively reduce HSV-2 infectivity, it remained possible that this destruction was mediated by envelope removal. Because papillomaviruses are non-enveloped, the possibility remained that SDS would fail to inactivate these viruses. We utilized BPV-1 as a prototype PV because of its ability to rapidly (within 2 weeks) form multi-layered transformed foci in mouse fibroblasts in an in vitro assay. Table 3 describes results of two separate experiments in which stocks of BPV-1 were incubated at 37° C. with various concentrations of SDS (5% to 5×10^−4%) for either 10 or 30 minutes, diluted to lower the SDS concentration (to avoid cell toxicity) and then used to infect C127 cells. […] Table 4 lists several other commercially available detergents that were tested for possible inactivation of BPV-1. None of these detergents inactivated the morphologic transforming properties of the BPV-1.

[2] = test system: lymphocyte-, macrophage- and dual-tropic strains of HIV-1 (IIIB, BaL, 89.6); assay: Cell-free HIV-1 inactivation (FIG. 5); type: cell-based, human immunodeficiency virus; details: HCLB or P4-R5 indicator cells
Method: Cell-free HIV-1 strain IIIB (A) was treated with N-9, C31G, or SDS, and used to infect HCLB cells. Cell-free HIV-1 strains BaL (M tropic) (B) and 89.6 (dual tropic) (C) were treated with N-9, C31G or SDS,and used to infect P4-R5 cells. Assays were conducted. Infectivity following exposure is expressed as a percentage relative to the number of β-gal-positive cells in duplicate wells infected with virus incubated in the absence of a microbicidal compound. Results shown in FIG. 5 are the average cell counts for a total of four wells per concentration in two independent experiments.

[3] = test system: CRPV; type: in vivo, cottontail rabbit papillomavirus; details: 10^−2 dilution of CRPV stock, 0.05% N-9, 37° C. 10 min; 10 sites each, 3-6 weeks
[4] = test system: Bovine sperm; assay: Bovine sperm motility following detergent addition; type: cell-based; parameters: key to Bovine Sperm Motility Following Detergent Addition: +++: Vigorous swimming; ++/−: Many swimmers/some dead; +/−: Occasional swimmer/most dead; −: All dead
Text: The following data represent an in vitro experiment to test the efficacy of SDS and other detergents as spermicidal agents. Frozen samples of bull semen were obtained, thawed and placed in a test tube. Aliquots were taken out and put in a separate test tube where they were mixed with detergent (SDS, C31G, N-9 or a mixture of SDS and N-9) to a final percent as listed in Tables 8 and 9 below. After mixing, the samples were immediately placed on a microscope slide and visually examined for sperm movement. The experiment was conducted one sample at a time so that the visual examination was conducted immediately after addition of detergent to the sample. As a result, indications in the table of complete inactivation indicate virtually instantaneous inactivation of the sperm. […] Occasional swimmers means very few, on the order of approximately 1% of the population of sperm present in the sample, indicating approximately 99% of the sperm were inactivated by the detergent.

[5] = test system: HIV-1-infected SupT1 cells; assay: Cell-associated HIV-1 infectivity (FIG. 6); type: cell-based, human immunodeficiency virus; details: 10 min at 37° C., co-culture with HCLB cells, FIG. 6(a)
Method: (A) SupT1 T lymphocytes (8×10^4)infected 5 days prior with HIV-1 strain IIIB were pelleted and resuspended in new media to remove cell-free virus. After exposure to selected concentrations of each microbicide for 10 min at 37° C., the cells were diluted 1:10 and co-cultured with HCLB cells for 2 h. Following one wash with PBS to remove the infected lymphocytes, the indicator cells were cultured and assayed. Infectivity following exposure is expressed as a percentage relative to the number of β-gal-positive cells in duplicate wells infected with HIV-1 infected SupT1 cells incubated in the absence of a microbicidal compound. Results shown in FIG. 6(a) are the average cell counts for a total of four wells per concentration in two independent experiments. (B) SupT1 T lymphocytes (8×10^4) were incubated with selected concentrations of each microbicide for 10 min at 37° C., and then diluted 1:10 with new media. Following a 2 h incubation period, the cells were assessed for viability. Cell survival after treatment is expressed as the fraction of viable cells relative to the number of mock-exposed cells. Results shown in FIG. 6(b) are the average of two experiments in which triplicate wells for each concentration were assayed.

CCCCCCCCCCCCOS(=O)(=O)[O-].[Li+] [LDS, lithium dodecyl sulfate]
anti-papillomavirus activity in the C127 focus assay [1]: have anti-papillomavirus activity

CCCCCCCCCCCC(=O)O [Lauric Acid, lauric acid]
anti-papillomavirus activity in the C127 focus assay [1]: have anti-papillomavirus activity

CCCCCCCCCCCC(=O)[O-].[Na+] [NA+ Lauric Acid, sodium salt of lauric acid]
anti-papillomavirus activity in the C127 focus assay [1]: have anti-papillomavirus activity

Nonoxynol-9 [N-9, reference compound]
inactivation of cell-free HIV-1 strains IIIB, BaL and 89.6 (infectivity, β-gal-positive cells) [2]: inactivated | growth of papillomas (GMD) from treated versus normal CRPV (FIG. 2b) [3]: not a difference in the growth of the lesions | Bovine Sperm Motility Following Detergent Addition ([4]; Table 8, 0.0125% detergent): +++ | Bovine Sperm Motility Following Detergent Addition ([4]; Table 8, 0.025% detergent): − | Bovine Sperm Motility Following Detergent Addition ([4]; Table 8, 0.5% detergent): − | Bovine Sperm Motility Following Detergent Addition ([4]; Table 8, 1% detergent): − | Bovine Sperm Motility Following Detergent Addition ([4]; Table 8, 2% detergent): − | Bovine Sperm Motility Following Detergent Addition ([4]; Table 9, 0.125% detergent): +++ | Bovine Sperm Motility Following Detergent Addition ([4]; Table 9, 0.25% detergent): +++ | Bovine Sperm Motility Following Detergent Addition ([4]; Table 9, 0.5% detergent): +++ | Bovine Sperm Motility Following Detergent Addition ([4]; Table 9, 1% detergent): ++/− | Bovine Sperm Motility Following Detergent Addition ([4]; Table 9, 2% detergent): − | cell-associated infectivity of HIV-1-infected SupT1 cells [5]: can reduce the cell-associated infectivity

Source: patent publication US6635242B2, “Broad spectrum microbicidal and spermicidal compositions, devices, and methods” (The Pennsylvania State University, priority 1998, dated 2003)
